# Measurements: US20250250263A1, “INHIBITING HISTONE DEACETYLASE 6 (HDAC6)” (Eikonizo Therapeutics, Inc., priority 2022, published 2025)
# Assays:
# Human HDAC6 = Human HDAC6 (Homo sapiens (Human), UniProt Q9UBN7); experiment: In vitro HDAC6 enzymatic activity (Caliper endpoint assay or fluorogenic Nanosyn assay); assay type: biochemical; conditions: ratio of HDAC8 IC50/HDAC6 IC50
# Human HDAC8 = Human HDAC8 (Homo sapiens (Human), UniProt Q9BY41); experiment: In vitro HDAC8 enzymatic activity (Caliper endpoint assay); assay type: biochemical
# Chain of Human HDAC8 (Q9BY41 whole entry): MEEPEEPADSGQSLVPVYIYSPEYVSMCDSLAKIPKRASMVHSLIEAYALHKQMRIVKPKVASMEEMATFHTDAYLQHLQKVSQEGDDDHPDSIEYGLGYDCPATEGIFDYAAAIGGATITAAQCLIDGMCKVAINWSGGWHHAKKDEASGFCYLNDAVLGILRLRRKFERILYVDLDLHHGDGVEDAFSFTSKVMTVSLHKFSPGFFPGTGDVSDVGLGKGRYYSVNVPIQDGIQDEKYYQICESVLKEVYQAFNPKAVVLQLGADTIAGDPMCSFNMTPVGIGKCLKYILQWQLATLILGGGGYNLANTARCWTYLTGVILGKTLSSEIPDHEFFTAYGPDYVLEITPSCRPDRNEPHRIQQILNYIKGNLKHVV
# Chain of Human HDAC6 (Q9UBN7 whole entry): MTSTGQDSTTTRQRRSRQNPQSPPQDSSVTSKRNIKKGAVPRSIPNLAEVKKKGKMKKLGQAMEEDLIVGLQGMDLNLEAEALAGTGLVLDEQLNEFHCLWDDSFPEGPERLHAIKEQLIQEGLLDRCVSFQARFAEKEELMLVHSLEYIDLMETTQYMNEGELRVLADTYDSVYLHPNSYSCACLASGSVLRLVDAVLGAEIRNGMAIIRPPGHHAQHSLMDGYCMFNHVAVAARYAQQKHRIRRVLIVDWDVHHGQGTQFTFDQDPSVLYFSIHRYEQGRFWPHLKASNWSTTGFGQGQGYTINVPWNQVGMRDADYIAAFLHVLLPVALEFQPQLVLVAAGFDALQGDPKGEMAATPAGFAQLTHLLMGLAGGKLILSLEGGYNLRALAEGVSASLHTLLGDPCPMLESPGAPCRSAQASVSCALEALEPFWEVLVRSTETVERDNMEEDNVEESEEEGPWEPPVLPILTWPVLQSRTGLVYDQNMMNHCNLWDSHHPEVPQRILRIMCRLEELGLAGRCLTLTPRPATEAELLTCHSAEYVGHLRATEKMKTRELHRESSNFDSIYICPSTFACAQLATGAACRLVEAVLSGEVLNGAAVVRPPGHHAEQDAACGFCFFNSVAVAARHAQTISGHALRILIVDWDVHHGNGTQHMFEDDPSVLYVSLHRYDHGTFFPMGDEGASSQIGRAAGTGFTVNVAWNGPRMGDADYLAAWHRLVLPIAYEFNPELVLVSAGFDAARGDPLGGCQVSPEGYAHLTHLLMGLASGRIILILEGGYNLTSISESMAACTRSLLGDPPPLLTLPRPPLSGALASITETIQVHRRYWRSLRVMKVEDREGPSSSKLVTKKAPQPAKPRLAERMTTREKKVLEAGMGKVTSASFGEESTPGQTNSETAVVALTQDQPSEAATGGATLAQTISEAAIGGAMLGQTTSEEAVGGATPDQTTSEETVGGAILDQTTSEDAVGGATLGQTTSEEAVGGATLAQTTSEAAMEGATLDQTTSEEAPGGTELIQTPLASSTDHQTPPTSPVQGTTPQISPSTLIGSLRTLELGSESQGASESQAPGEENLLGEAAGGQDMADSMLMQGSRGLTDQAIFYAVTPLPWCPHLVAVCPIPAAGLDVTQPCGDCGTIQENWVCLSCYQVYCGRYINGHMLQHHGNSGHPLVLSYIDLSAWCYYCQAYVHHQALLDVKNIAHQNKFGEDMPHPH
Selectivity (6 v 8) (fold) (Human HDAC6),IC50 (Human HDAC8) [µM],SMILES
IV (IV: >100-1000),–,"N#Cc1cc(OCc2ccc(-c3nnc(C(F)F)o3)cn2)ccc1F [Compound 30, 5-((5-(5-(difluoromethyl)-1,3,4-oxadiazol-2-yl)pyridin-2-yl)methoxy)-2-fluorobenzonitrile]"
V (V: >1000),> 100,FC(F)c1nnc(-c2ccc(COc3ccc4cccnc4c3)nc2)o1 [Compound 34]
V (V: >1000),> 100,FC(F)c1nnc(-c2ccc(COc3cccc4ncccc34)nc2)o1 [Compound 63]
